Test [1] has as its target T1, human NAMPT (Homo sapiens, UniProt P43490).
T1 construct: N-terminally His6-tagged recombinant full length human NAMPT; His6 (N); made in house; host or cells: E. coli
Nature of the test: NAMPT biochemical assay (hNAMPT IC50), cascade assay with NMNAT1 and NAD/NADH-Glo detection. As to conditions: Table 2; replicate values on separate lines. The text has this: NAMPT Biochemical Assay (hNAMPT IC50)
Nicotinamide phosphoribosyltransferase (NAMPT) inhibitory activity of compounds of the present invention was quantified employing a cascade assay as described in the following paragraphs. The assay couples the conversion of nicotinamide (NAM) to nicotinamide mononucleotide (NMN) by NAMPT with the conversion of NMN to […] adenine dinucleotide (NAD^+) by nicotinamide mononucleotide adenylyltransferase 1 (NMNAT1) and the subsequent quantification of the generated NAD^+ by a commercial detection kit (NAD/NADH-Glo™ Assay from Promega, #G9072).
N-terminally His6-tagged recombinant full length human NAMPT and N-terminally His6-tagged recombinant full length human NMNAT1, both expressed in E. coli and purified via Ni-NTA-affinity chromatography and consecutive size exclusion chromatography, were used as enzymes.
For the assay 50 nl of a 100 fold concentrated solution of the test compound in DMSO was pipetted into a white low volume 384 well microtiter plate (Greiner Bio-One, Frickenhausen, Germany), 2.5 μl of a solution of NAMPT in aqueous NMNAT1-containing assay buffer [50 mM Tris/HCl pH 7.5, 12 mM MgCl2, 0.6 mM adenosine-tri-phosphate (ATP), 1 nM NMNAT1, 0.02% (w/v) bovine serum albumin (Sigma-Aldrich #P7906), 0.001% (v/v) Tween-20 (Sigma-Aldrich #P7949)] were added and the mixture was incubated for 15 min at 22° C. to allow pre-binding of the test compounds to the enzyme before the start of the enzyme reaction. Then the reaction was started by the addition of 2.5 μl of a solution of NAM (300 nM=>final conc. in the 5 μl assay volume is 150 nM, Sigma-Aldrich #^47865) and 5-phosphorylribose-1-pyrophosphate pentasodium salt (PRPP, 1.2 μM=>final conc. in the 5 μl assay volume is 0.6 μM, Sigma-Aldrich P8296) in assay buffer and the resulting mixture was incubated for a reaction time of 20 min at 22° C. The concentration of NAMPT was adjusted depending of the activity of the enzyme lot and was chosen appropriate to have the assay in the linear range, typical final concentration in the 5 μl assay volume was 0.16 nM.
The resulting mixture was incubated 2 h at 22° C. to allow a steady-state of the detection system. Subsequently the generated luminescence was measured in a suitable luminescence reader, e.g. a Viewlux™ (Perkin-Elmer), and taken as a measure for the generated NAD^+.

In test [2] the test system is MDA-MB-453. Nature of the test: Cell proliferation assay, Cell Titer Glo (CTG) method, MDA-MB-453. It counts as cell-based. The protocol: (§1) Cell Proliferation Assay for Nampt-ADCs and Nampt-SMOLs
(§2) Cell Titer Glo (CTG) Method
(§3) To this end, 75 μL per well CTG solution (Promega, catalog #G755B and G756B) was added to cells in sister plates, incubated for 10 min, and luminescence was measured on a VICTOR V instrument (Perkin Elmer). After incubation for either 72 or 96 hrs (Table 1) in the presence of test compounds, 100 μl per well CTG solution was added to all test wells, incubated for 10 min and luminescence was measured on a VICTOR V instrument. […] The DRC software is a Biobook Spreadsheet that was developed by Bayer AG and Bayer Business Services on the IDBS E-Workbook Suite platform (IDBS: ID Business Solutions Ltd., Guildford, UK).
On the technique in general: ATP-based viability assays read luminescence as a measure of living cells.

Test [3] deals with A549 C4.4a B4. Put plainly: Cell proliferation assay, Cell Titer Glo (CTG) method, A549 C4.4a B4. It counts as cell-based, human. The protocol:
as §1, §2, §3

Test [4] relates to THP-1. Put plainly: Cell proliferation assay, Cell Titer Glo (CTG) method, THP-1. In kind it is cell-based, human. As to conditions: 72 h. The protocol:
as §1, §2, §3

Test [5] relates to U251 MG. Put plainly: Cell proliferation assay, Cell Titer Glo (CTG) method, U251 MG. In kind it is cell-based. The method, then:
as §1, §2, §3

Where [6] appears, read: Homo sapiens, MDA-MB-453, 72 h, Table 2, read-out: MDA-MB-453 72 h IC50.
Where [7] appears, read: Homo sapiens, A549, 72 h, Table 2, read-out: A549 C4.4a B4 72 h IC50.
[8] abbreviates: Homo sapiens, U-251, 72 h, Table 2.

Values joined by “and” are separate entries in the source; they are usually repeats but may differ in a detail not shown here. Identical values can stand only once. Like-named read-outs stand apart in the source and are kept apart here. A value given as a limit tells only on which side of the number the result lay.

T1 sequence (P43490 whole entry): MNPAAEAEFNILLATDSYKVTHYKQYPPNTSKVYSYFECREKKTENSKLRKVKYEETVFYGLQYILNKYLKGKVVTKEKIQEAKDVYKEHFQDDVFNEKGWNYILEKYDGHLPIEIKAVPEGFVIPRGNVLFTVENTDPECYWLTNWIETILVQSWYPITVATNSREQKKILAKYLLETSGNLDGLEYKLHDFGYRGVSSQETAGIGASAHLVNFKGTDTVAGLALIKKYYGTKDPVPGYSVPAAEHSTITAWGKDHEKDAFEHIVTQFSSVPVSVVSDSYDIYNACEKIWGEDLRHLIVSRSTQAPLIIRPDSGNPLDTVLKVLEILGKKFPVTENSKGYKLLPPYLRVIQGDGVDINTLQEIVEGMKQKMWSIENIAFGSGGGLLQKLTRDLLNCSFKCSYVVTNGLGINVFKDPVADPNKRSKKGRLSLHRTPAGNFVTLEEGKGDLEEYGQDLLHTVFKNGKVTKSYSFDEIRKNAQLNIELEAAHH

Consider `O=C(Nc1ccc(-c2cc(-c3ccc4[nH]ccc4c3)c(=O)[nH]n2)cc1)N1Cc2ccncc2C1` [Example 20, N-{4-[5-(1H-indol-5-yl)-6-oxo-1,6-dihydropyridazin-3-yl]phenyl}-1,3-dihydro-2H-pyrrolo[3,4-c]pyridine-2-carboxamide], for which the IC50 in test [1] was 0.156 nM and 0.229 nM; in test [2] (setting [6]), less than 0.03 nM; in test [3] (setting [7]) it was 6.39 nM; in test [4] (Homo sapiens, THP-1, Table 2), less than 0.003 nM; in test [5] (setting [8]) it was less than 0.03 nM.
For the compound `NCCCCN1N=C(c2ccc(NC(=O)N3Cc4ccncc4C3)cc2)C[C@](c2cccc3ncccc23)(C(F)(F)F)C1=O` [Example 13, N-{4-[(5R)-1-(4-aminobutyl)-6-oxo-5-(quinolin-5-yl)-5-(trifluoromethyl)-1,4,5,6-tetrahydropyridazin-3-yl]phenyl}-1,3-dihydro-2H-pyrrolo[3,4-c]pyridine-2-carboxamide], the IC50 in test [1] is 2.77 nM and 3.2 nM; in test [2] (setting [6]), 0.436 nM; in test [3] (setting [7]), 227 nM; in test [4] (Homo sapiens, THP-1, Table 2), 0.447 nM; in test [5] (setting [8]) it was 43.7 nM.
As to `Cc1nnc(-c2cc(-c3ccc(NC(=O)N4Cc5ccncc5C4)cc3)nn(CCCCN)c2=O)o1` [Example 8, N-{4-[1-(4-Aminobutyl)-5-(5-methyl-1,3,4-oxadiazol-2-yl)-6-oxo-1,6-dihydropyridazin-3-yl]phenyl}-1,3-dihydro-2H-pyrrolo[3,4-c]pyridine-2-carboxamide], the IC50 was 1.04 nM and 1.32 nM in test [1]; 2.66 nM in test [2] (setting [6]); 93.5 nM in test [3] (setting [7]); 0.979 nM in test [4] (Homo sapiens, THP-1, Table 2); 28.1 nM in test [5] (setting [8]).
Regarding `Cc1nnc(-c2cc(-c3ccc(NC(=O)N4Cc5ccncc5C4)cc3)n[nH]c2=O)o1` [Example 9, N-{4-[5-(5-methyl-1,3,4-oxadiazol-2-yl)-6-oxo-1,6-dihydropyridazin-3-yl]phenyl}-1,3-dihydro-2H-pyrrolo[3,4-c]pyridine-2-carboxamide], the IC50 in test [1] is 0.457 nM and 0.717 nM; in test [2] (setting [6]), 0.0357 nM; in test [3] (setting [7]), 97.2 nM; in test [4] (Homo sapiens, THP-1, Table 2) it was 1.21 nM; in test [5] (setting [8]), 4.34 nM.
As for “2 or 3-{[(2R)-2-Amino-2-carboxyethyl]sulfanyl}-4-{[2-({6-[3-{4-[(1,3-dihydro-2H-pyrrolo[3,4-c]pyridine-2-carbonyl)amino]phenyl}-6-oxo-5-(quinolin-5-yl)-5,6-dihydropyridazin-1(4H)-yl]hexyl}amino)-2-oxoethyl]amino}-4-oxobutanoic Acid [Example 30M]”, the IC50 is 9.96 nM in test [2] (Table 3 (ADCs), DSMZ cells, 72 h, read-out: MDA-MB-453 DSMZ 72 h IC^50); more than 300 nM in test [3] (Table 3 (ADCs), 72 h, read-out: A549 C4.4a 72 h IC^50); 81.1 nM in test [4] (Table 3 (ADCs), read-out: THP-1 72 h IC^50); more than 300 nM in test [5] (Table 3 (ADCs), 72 h, read-out: U-251 72 h IC^50).
For the compound `Cc1nnc(C2CC(c3ccc(NC(=O)N4Cc5ccncc5C4)cc3)=NNC2=O)o1` (centres unmarked) [Example 7, N-{4-[5-(5-Methyl-1,3,4-oxadiazol-2-yl)-6-oxo-1,4,5,6-tetrahydropyridazin-3-yl]phenyl}-1,3-dihydro-2H-pyrrolo[3,4-c]pyridine-2-carboxamide], the IC50 in test [1] is 1.02 nM and 1.2 nM; in test [2] (setting [6]), 0.299 nM; in test [3] (setting [7]), more than 300 nM; in test [4] (Homo sapiens, THP-1, Table 2) it was 0.995 nM; in test [5] (setting [8]), 8.95 nM.
On to “2 or 3-{[(2R)-2-Amino-2-carboxyethyl]sulfanyl}-4-{[2-({6-[3-{4-[(1,3-dihydro-2H-pyrrolo[3,4-c]pyridine-2-carbonyl)amino]phenyl}-5-(5-methyl-1,3,4-oxadiazol-2-yl)-6-oxopyridazin-1(6H)-yl]hexyl}amino)-2-oxoethyl]amino}-4-oxobutanoic Acid [Example 34M]”, for which the IC50 in test [1] was 1.17 nM and 1.18 nM; in test [2] (Table 2, 72 h, read-out: MDA-MB-453 72 h IC50), 91.2 nM; in test [3] (Table 2, 72 h, read-out: A549 C4.4a B4 72 h IC50), more than 300 nM; in test [4] (Table 2), more than 300 nM; in test [5] (Table 2, 72 h), more than 300 nM.
`NCCCCCCn1nc(-c2ccc(NC(=O)N3Cc4ccncc4C3)cc2)cc(-c2cccc3ncccc23)c1=O` [Example 6, N-{4-[1-(6-Aminohexyl)-6-oxo-5-(quinolin-5-yl)-1,6-dihydropyridazin-3-yl]phenyl}-1,3-dihydro-2H-pyrrolo[3,4-c]pyridine-2-carboxamide]: the IC50 in test [1] was 0.267 nM and 0.288 nM; in test [2] (setting [6]), less than 0.03 nM; in test [3] (setting [7]), 11 nM; in test [4] (Homo sapiens, THP-1, Table 2), less than 0.003 nM; in test [5] (setting [8]), less than 0.03 nM.
With `O=C(Nc1ccc(-c2cc(-c3ccc4cccnc4c3)c(=O)[nH]n2)cc1)N1Cc2ccncc2C1` [Example 24, N-{4-[6-oxo-5-(quinolin-7-yl)-1,6-dihydropyridazin-3-yl]phenyl}-1,3-dihydro-2H-pyrrolo[3,4-c]pyridine-2-carboxamide], the IC50 is 0.241 nM and 0.295 nM in test [1]; less than 0.03 nM in test [2] (setting [6]); 4.92 nM in test [3] (setting [7]); 0.00996 nM in test [4] (Homo sapiens, THP-1, Table 2); less than 0.03 nM in test [5] (setting [8]).
For the compound `O=C(Nc1ccc(-c2cc(-c3cccc4[nH]ncc34)c(=O)[nH]n2)cc1)N1Cc2ccncc2C1` [Example 18, N-{4-[5-(1H-indazol-4-yl)-6-oxo-1,6-dihydropyridazin-3-yl]phenyl}-1,3-dihydro-2H-pyrrolo[3,4-c]pyridine-2-carboxamide], the IC50 is 0.213 nM and 0.226 nM in test [1]; less than 0.03 nM in test [2] (setting [6]); 58.5 nM in test [3] (setting [7]); not above 0.003 nM in test [4] (Homo sapiens, THP-1, Table 2); less than 0.03 nM in test [5] (setting [8]); 0.0428 nM in test [5] (Table 2, 72 h).
`O=C1NN=C(c2ccc(NC(=O)N3Cc4ccncc4C3)cc2)CC1c1ccc2[nH]ncc2c1` (centres unmarked) [Example 17, N-{4-[5-(1H-indazol-5-yl)-6-oxo-1,4,5,6-tetrahydropyridazin-3-yl]phenyl}-1,3-dihydro-2H-pyrrolo[3,4-c]pyridine-2-carboxamide]: the IC50 in test [1] was 0.218 nM and 0.346 nM; in test [2] (setting [6]), less than 0.03 nM; in test [3] (setting [7]), 12.4 nM; in test [4] (Homo sapiens, THP-1, Table 2), 0.0385 nM; in test [5] (setting [8]) it was 0.642 nM.
Turning to `NCCCCn1nc(-c2ccc(NC(=O)N3Cc4ccncc4C3)cc2)cc(-c2ccc3cccnc3c2)c1=O` [Example 25, N-{4-[1-(4-Aminobutyl)-6-oxo-5-(quinolin-7-yl)-1,6-dihydropyridazin-3-yl]phenyl}-1,3-dihydro-2H-pyrrolo[3,4-c]pyridine-2-carboxamide], the IC50 is 0.803 nM and 1.15 nM in test [1]; less than 0.03 nM in test [2] (setting [6]); 57.1 nM in test [3] (setting [7]); 0.0227 nM in test [4] (Homo sapiens, THP-1, Table 2); 0.428 nM in test [5] (setting [8]).
As for `Cc1nnc(-c2cc(-c3ccc(NC(=O)N4Cc5ccncc5C4)cc3)nn(CCCCCCN)c2=O)o1` [Example 10, N-{4-[1-(6-Aminohexyl)-5-(5-methyl-1,3,4-oxadiazol-2-yl)-6-oxo-1,6-dihydropyridazin-3-yl]phenyl}-1,3-dihydro-2H-pyrrolo[3,4-c]pyridine-2-carboxamide], the IC50 in test [1] was 0.358 nM and 0.389 nM; in test [2] (setting [6]) it was 0.0943 nM; in test [3] (setting [7]) it was 267 nM; in test [4] (Homo sapiens, THP-1, Table 2), 0.00471 nM; in test [5] (setting [8]), 8.87 nM.

(Values after US20200360531A1, “ANTIBODY DRUG CONJUGATES (ADCS) WITH NAMPT INHIBITORS” (Bayer Aktiengesellschaft, priority 2018, published 2020).)
